Several values for one entry are separate records, joined by “and”; a condition that tells them apart may be missing. Equal entries are not always repeated.
Key:
[1] = test system: Pristionchus pacificus; assay: Pristionchus pacificus motor disruption dose-response on solid media, 1 h; conditions: for mean % any phene (coiled, jerky-Unc or paralyzed): Pristionchus pacificus young adults, mean of three biological replicates
[2] = test system: C. elegans; assay: C. elegans motor phenotype scoring on solid media (Punc/jerky-unc, coiled, paralyzed), wild-type young adults; assay type: in vivo, Caenorhabditis elegans; conditions: for any phene, mean % fraction of young adults exhibiting any phenotype (coiled, jerky-Unc or paralyzed) / atypical locomotion (number of animals) / coiled (number of animals) / no phene (number of animals) / paralyzed (number of animals): one hour; for any phene, mean % fraction of young adults exhibiting any phenotype (coiled, jerky-Unc or paralyzed): mean of three biological replicates; for atypical locomotion (number of animals) / coiled (number of animals) / no phene (number of animals) / paralyzed (number of animals): young adults, 20 animals per trial, single replicate counts; for AVERAGES Fraction Coiled / AVERAGES Fraction Paralyzed / AVERAGES Fraction Punc: mean of 3 replicates; for Fraction Coiled / Fraction Paralyzed / Fraction Punc: single replicate

## CCC1CCC(N2CCN(c3ccc([N+](=O)[O-])cc3)CC2)CC1 (stereo not shown) [Nemacol-2]
[1]; conc 3.75, observed at one hour
  mean % any phene (coiled, jerky-Unc or paralyzed): 4.167%
[1]; conc 15, observed at one hour
  mean % any phene (coiled, jerky-Unc or paralyzed): 89.1667%
[1]; conc 60, observed at one hour
  mean % any phene (coiled, jerky-Unc or paralyzed): 100%
[1]; Pristionchus pacificus, 1 h, read-out: P. pacificus motor disruption EC50
  EC50: 8.6 ± 1.3 µM
[2]; 3.75uM
  any phene, mean % fraction of young adults exhibiting any phenotype (coiled, jerky-Unc or paralyzed): 29.1667%
  atypical locomotion (number of animals): 5 and 8 and 2 and 3 and 9
  coiled (number of animals): 0
  no phene (number of animals): 15 and 12 and 18 and 17 and 11
  paralyzed (number of animals): 0
[2]; 15 μM, 30 min, adults
  NP (number of animals): 5 and 7 and 10
  P (number of animals): 0
  Punc (number of animals): 10 and 9 and 8
  AVERAGES Fraction Coiled: 0.0926
  AVERAGES Fraction Paralyzed: 0.0
  AVERAGES Fraction Punc: 0.5
  Fraction Coiled: 0.167 and 0.111 and 0.0
  Fraction Paralyzed: 0.0
  Fraction Punc: 0.556 and 0.5 and 0.444
[2]; 15 μM, 60 min, adults
  C2 (number of animals): 2 and 1
  P (number of animals): 0
  Punc (number of animals): 14 and 15
  AVERAGES Fraction Coiled: 0.13
  AVERAGES Fraction Paralyzed: 0.0
  AVERAGES Fraction Punc: 0.8
  Fraction Coiled: 0.111 and 0.167
  Fraction Paralyzed: 0.0
  Fraction Punc: 0.8
[2]; 15 μM, 90 min, adults
  C2 (number of animals): 1 and 2
  P (number of animals): 0
  Punc (number of animals): 15 and 11
  AVERAGES Fraction Coiled: 0.113
  AVERAGES Fraction Paralyzed: 0.0
  AVERAGES Fraction Punc: 0.8
  Fraction Coiled: 0.111 and 0.118
  Fraction Paralyzed: 0.0
  Fraction Punc: 0.8 and 0.647
[2]; 15 μM, 120 min, adults
  Punc (number of animals): 11 and 7
  AVERAGES Fraction Coiled: 0.0741
  AVERAGES Fraction Paralyzed: 0.0185
  AVERAGES Fraction Punc: 0.537
  Fraction Coiled: 0.0556 and 0.111
  Fraction Paralyzed: 0.0 and 0.0556
  Fraction Punc: 0.6 and 0.4
[2]; 15 μM, 240 min, adults
  C1 (number of animals): 0
  C2 (number of animals): 0
  NP (number of animals): 8 and 12 and 15
  P (number of animals): 0
  AVERAGES Fraction Coiled: 0.037
  AVERAGES Fraction Paralyzed: 0.0741
  AVERAGES Fraction Punc: 0.6
  Fraction Coiled: 0.0 and 0.111
  Fraction Paralyzed: 0.0 and 0.111
  Fraction Punc: 0.556 and 0.6
[2]; 15 μM, 360 min, adults
  C1 (number of animals): 0
  NP (number of animals): 14 and 9 and 17
  AVERAGES Fraction Coiled: 0.037
  AVERAGES Fraction Paralyzed: 0.0185
  AVERAGES Fraction Punc: 0.2
  Fraction Coiled: 0.0 and 0.111
  Fraction Paralyzed: 0.0 and 0.0556
  Fraction Punc: 0.222 and 0.333 and 0.0556
[2]; 15 μM, next day, adults
  Next Day Animals alive (moving fine): alive, recovered
[2]; 15uM
  any phene, mean % fraction of young adults exhibiting any phenotype (coiled, jerky-Unc or paralyzed): 95.873%
  atypical locomotion (number of animals): 10 and 11 and 18 and 13
  coiled (number of animals): 5 and 2 and 4
  no phene (number of animals): 0 and 2 and 1
  paralyzed (number of animals): 5 and 2 and 0 and 3
[2]; 30 μM, 30 min, adults
  C1 (number of animals): 3 and 2
  Punc (number of animals): 10 and 11 and 16
  AVERAGES Fraction Coiled: 0.246
  AVERAGES Fraction Paralyzed: 0.0185
  AVERAGES Fraction Punc: 0.7
  Fraction Coiled: 0.333 and 0.3 and 0.111
  Fraction Paralyzed: 0.0556 and 0.0
  Fraction Punc: 0.556 and 0.647 and 0.9
[2]; 30 μM, 60 min, adults
  NP (number of animals): 0
  Punc (number of animals): 7 and 8 and 13
  AVERAGES Fraction Coiled: 0.3
  AVERAGES Fraction Paralyzed: 0.167
  AVERAGES Fraction Punc: 0.5
  Fraction Coiled: 0.4 and 0.333 and 0.222
  Fraction Paralyzed: 0.222 and 0.0556
  Fraction Punc: 0.4 and 0.444 and 0.7
[2]; 30 μM, 90 min, adults
  NP (number of animals): 0
  P (number of animals): 5 and 3
  Punc (number of animals): 8 and 10 and 12
  AVERAGES Fraction Coiled: 0.241
  AVERAGES Fraction Paralyzed: 0.2

— PMC10066365, “Nemacol is a small molecule inhibitor of C. elegans vesicular acetylcholine transporter with anthelmintic potential” (Nature Communications, 2023)
